Some test systems named below: BT-549 breast; LXFL 529 NSCLC; HOP-18 NSCLC; KM20L2 colon; RXF-631 renal; MDA-N.
What all share (test): NCI tumour cell line growth inhibition, 48 h

The record followed here is PubChem BioAssay (NCI).

Structures are written as SMILES. Where “and” joins values, the source holds several entries; their conditions need not be identical. Identical values can stand only once.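 These data come from cells grown in 96-well plates and exposed to compound for 48 hours at five concentrations. GI50: concentration for 50% inhibition of growth. TGI: total growth inhibition.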

Take `C=C1C(=O)O[C@H]2[C@H]1CC/C(CNC(=O)/C=C/c1ccc(Cl)cc1Cl)=C\CC[C@@]1(C)O[C@@H]21`: in the assay with BT-549 breast, the GI50 was 0.975 µM and the TGI was determined as 2.59 µM.

As for `COc1cc2c(Cc3cc(OCc4ccccc4)ccc3N)nccc2c(OC)c1OC`, the TGI with LXFL 529 NSCLC, in the assay with HOP-18 NSCLC, in the assay with KM20L2 colon and in the assay on RXF-631 renal was over 10 µM each time.

As for `Cc1cc(Cl)ccc1Nc1nc(C(F)(F)F)ccc1C(=O)Nc1cccc(C(F)(F)F)c1`, in the assay on BT-549 breast, the GI50 is 3.76 µM and the TGI came out at 15.7 µM.

For `CC1=C(C(=O)Nc2ccccc2C)C(c2ccccc2C)C(C(=O)Nc2ccccc2C)=C(C)N1`, the TGI was over 10 µM in the assay on LXFL 529 NSCLC, 37 µM with HOP-18 NSCLC, 38.9 µM with KM20L2 colon and over 100 µM with RXF-631 renal.

Take `NCCSC(C[N+](=O)[O-])c1ccccc1Cl` (centres undefined): in the assay with BT-549 breast, the GI50 was 2.03 µM and the TGI turned out to be 4.26 µM.

On to `COC(=O)C1C(/C=C/c2ccoc2)ON2CCC[C@@H]12` (some centres undefined), for which the TGI with LXFL 529 NSCLC was over 100 µM; with HOP-18 NSCLC, 98 µM; in the assay on KM20L2 colon, over 100 µM.

As for `O=c1[nH]cnc2c1ncn2CCCCO`, the TGI in the assay with LXFL 529 NSCLC, with HOP-18 NSCLC and in the assay on KM20L2 colon was over 100 µM each time.

Turning to `NS(=O)(=O)c1ccc(NC(=O)c2cccc3c(Nc4ccc(S(N)(=O)=O)cc4)c4ccccc4nc23)cc1`, the TGI is 85.9 µM with LXFL 529 NSCLC, over 100 µM in the assay with HOP-18 NSCLC, over 100 µM with KM20L2 colon and 11.1 µM in the assay with RXF-631 renal.

As for `Cc1ccccc1NC(=O)c1cc2ccccc2cc1O`, in the assay on BT-549 breast, the GI50 was 3.46 µM and the TGI was 8.43 µM.

Consider `O=S(=O)(N/N=C/c1ccc(Cl)cc1Cl)c1ccccc1`, for which the TGI in the assay on LXFL 529 NSCLC, with HOP-18 NSCLC, with KM20L2 colon and with RXF-631 renal was over 100 µM each time.

Take `O=C1C=C(OCCCl)C(=O)c2c(O)ccc(O)c21`: the TGI with BT-549 breast is 0.477 µM. For the same compound, in the assay on MDA-N, the GI50 was 0.236 µM; the TGI was 0.29 µM and 0.539 µM.

On to `CN(C)N=Nc1nn(C(=O)Nc2ccc(Cc3ccccc3)cc2)c2ccccc12`, for which, in the assay with BT-549 breast, the GI50 was 25.7 µM and the TGI was over 100 µM.

As for `COc1ccc(/C=N\O[Si](C)(C)C(C)(C)C)cc1O[Si](C)(C)C(C)(C)C`, the TGI in the assay on LXFL 529 NSCLC is 29.9 µM; in the assay with HOP-18 NSCLC, 31.1 µM; with KM20L2 colon it was over 100 µM; with RXF-631 renal, 37.4 µM.

As to `O=c1cc(-c2ccc(O)cc2)oc2cc(O)cc(O)c12`, the TGI with LXFL 529 NSCLC was found to be 37.3 µM; in the assay on KM20L2 colon, 88.2 µM.

In the case of `Nc1ccccc1C#C/C=C\C#Cc1ccccc1F`, in the assay on BT-549 breast, the GI50 is 4.06 µM and the TGI was 18.1 µM.

Compound `CCOC(=O)C1Oc2ccc([N+](=O)[O-])cc2C1(C)O` (centres undefined) yielded a TGI with LXFL 529 NSCLC of over 100 µM.

Take `Cn1c2ccccc2c2[nH]c3ccccc3c(=O)c21`: the TGI with BT-549 breast and in the assay on MDA-N was over 100 µM each time.

As for `CNc1ncc2cc(Oc3ccc(F)cc3F)c(=O)n(C)c2n1`, in the assay on BT-549 breast, the GI50 is over 25 µM and the TGI is over 25 µM.

Turning to `Nc1cc(-c2ccccc2)n(C(=O)Nc2ccc(Oc3ccccc3)cc2)n1`, in the assay with BT-549 breast, the GI50 is 86.2 µM and the TGI was over 100 µM.

Consider `CNC(=O)c1cncc(/C=C/c2c(Cl)cccc2Cl)c1`, for which, in the assay on BT-549 breast, the GI50 was over 25 µM and the TGI was over 25 µM.

Regarding `O=C(NN1C(=O)CSC12CCC(c1ccccc1)CC2)c1[nH]c2ccc(F)cc2c1-c1ccccc1` (centres undefined), in the assay with BT-549 breast, the GI50 is 19.9 µM and the TGI was determined as 34.8 µM.

Turning to `O=C(Cn1c2ccccc2c2ccncc21)N/N=C\c1ccc2ccccc2c1`, in the assay on BT-549 breast, the GI50 is 15.6 µM and the TGI amounted to 36.5 µM.

For `CN(C)C(=S)SCC(N)=O`, the TGI in the assay on BT-549 breast and with MDA-N was over 100 µM in each case.

Take `CCOC(=O)/C=C1\Oc2ccccc2C1(C)O` (centres undefined): the TGI in the assay on LXFL 529 NSCLC, in the assay with HOP-18 NSCLC and with KM20L2 colon was over 100 µM each time.

As to `O=C(CN1C(=O)S/C(=C\C(Cl)=C\c2ccccc2)C1=O)NCCCn1ccnc1`, in the assay with BT-549 breast, the GI50 was 2.12 µM and the TGI turned out to be 4.83 µM.

Take `Cc1cccc(N=C2NC(=O)C(CC(=O)Nc3ccccc3Cl)S2)c1` (centres undefined): the TGI with LXFL 529 NSCLC, in the assay on KM20L2 colon and in the assay with RXF-631 renal was over 100 µM in each case.

`COc1ccc2c(c1)C=C1CSCC3=Cc4cc(OC)ccc4OC13O2`: in the assay with BT-549 breast, the GI50 was 0.816 µM and the TGI is over 100 µM.

Consider `c1ccc(/C(=N\Nc2ccc3ccccc3n2)c2ccccn2)cc1`, for which, in the assay with BT-549 breast, the GI50 was 0.116 µM and the TGI was 1.72 µM.

With `O=CN1N=C(c2ccc(Nc3ccnc4cc(Cl)ccc34)cc2)CC1c1ccc(Cl)cc1` (centres undefined), in the assay on BT-549 breast, the GI50 was 4.77 µM and the TGI is over 100 µM.

Consider `O=C(CC(=O)c1ccccc1)C(=O)NC12CC3CC(CC(C3)C1)C2`, for which the TGI in the assay with LXFL 529 NSCLC, in the assay with HOP-18 NSCLC and with KM20L2 colon was over 100 µM throughout.

With `COc1ccc(OC)c(/C=N/N=C2\C(=O)Nc3c(Cl)cc(Cl)cc32)c1`, the TGI turned out to be 72.5 µM with BT-549 breast and 40.9 µM with MDA-N.

In the assay on HOP-18 NSCLC, `NNC(=S)N/N=C(/C(=O)Nc1ccc([N+](=O)[O-])cc1)c1nc2ccc([N+](=O)[O-])cc2[nH]c1=O` displayed a TGI of over 100 µM.

As to `CCc1nc(N)nc(N)c1C#CC(C)c1cc(-c2ccnc(C)c2)c2oc(C)nc2c1` (centres undefined), in the assay with BT-549 breast, the GI50 is 1.03 µM and the TGI amounted to 8.31 µM.

With `COc1ccc(/C(C#N)=C(/N)SCc2ccccc2Cl)cc1`, the TGI in the assay on LXFL 529 NSCLC was 31.2 µM; in the assay with HOP-18 NSCLC, 38.2 µM; with KM20L2 colon it was 34.3 µM.

Take `CCCC(CCC)C(=O)OCC1(CO)C/C(=C\c2ccc(C(F)(F)F)cc2)C(=O)O1` (centres undefined): in the assay with BT-549 breast, the GI50 is 7.04 µM and the TGI turned out to be 21 µM.

For the compound `COc1ccc(CN=C(N)N=C(N)N)cc1OC`, in the assay with BT-549 breast, the GI50 was 260 µM and the TGI is over 1000 µM.

For `Clc1ccc(/C=C/c2nc(Cl)c(-c3ccc(Cl)cc3)c(Cl)n2)cc1`, the TGI in the assay on BT-549 breast and in the assay on MDA-N was over 100 µM throughout.
